One data set has as its system mice. Kind of data set: In vivo delivery of FLuc-mRNA lipid nanoparticles in mice, in vivo imaging (IVIS). A digest of the protocol: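 Mice (n=3) received about 75 μL FLuc-mRNA LNP per mouse intramuscularly (rectus femoris), intravenously (tail vein), intraperitoneally or subcutaneously (back). After injection, D-luciferin (200 μL, 15 mg/mL) was given i.p. 10-15 min before IVIS imaging.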

Data set [1] can be described thus: Particle size and PDI of nucleic acid lipid nanoparticle preparations by dynamic light scattering. The class given is physicochemical. The procedure, abridged:
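Size read by DLS after diluting the LNP preparation (approx. 0.04 mg/mL mRNA) in ultrapure water with gentle pipette mixing. The same sample, recovered and diluted further with water, was then used for zeta potential measurement.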

A short description of data set [2]: Potential characterization of nucleic acid lipid nanoparticle preparations. It is filed as physicochemical. As for the experimental part: 20 μL of the nucleic acid lipid nanoparticle solution (containing about 0.04 mg/mL mRNA) was taken and added with 780 μL of ultrapure water, used a pipette tip to gently blow and mix, and the potential of the nanopreparation was detected by Malvern particle sizer (model ZEN3700).
27.5 μL nucleic acid lipid nanoparticle solution (containing about 0.04 mg/mL mRNA) was taken and added with 200 μL ultrapure water. A pipette tip was used to gently blow the sample and mix well. The particle size of the nanopreparation was detected by Malvern Dynamic Light Scattering Instrument (Malvern Instruments Ltd., ZEN3700, UK). After the detection, the sample was recovered to an EP tube, and 600 μL of ultrapure water was added, gently blown with a pipette tip, and the potential of the nanopreparation was measured by a Malvern particle size meter.

Setting [3] is: DMG-PEG2000:DPPC:Chol:compound 1.40:11.15:38.95:48.50, N/P 30.
Setting [4] is: DMG-PEG2000:DSPC:Chol:compound 1.40:11.15:38.95:48.50, N/P 20.
[5] abbreviates: IM, DMG-PEG2000:DSPC:Chol:compound 1.40:11.15:38.95:48.50, N/P 30, Fluc-mRNA.
The mark [6] stands for this setting: IV, body, DMG-PEG2000:DSPC:Chol:compound 1.40:11.15:38.95:48.50, N/P 30, Fluc-mRNA.
[7] abbreviates: IV, liver, DMG-PEG2000:DSPC:Chol:compound 1.40:11.15:38.95:48.50, N/P 30.
Setting [8] is: IV, liver, DMG-PEG2000:DSPC:Chol:compound 1.40:11.15:38.95:48.50, N/P 30, Fluc-mRNA.
[9] abbreviates: IV, lung, DMG-PEG2000:DSPC:Chol:compound 1.40:11.15:38.95:48.50, N/P 30.
Setting [10] is: IV, lung, DMG-PEG2000:DSPC:Chol:compound 1.40:11.15:38.95:48.50, N/P 30, Fluc-mRNA.
Where [11] appears, read: IV, spleen, DMG-PEG2000:DSPC:Chol:compound 1.40:11.15:38.95:48.50, N/P 30.
The mark [12] stands for this setting: IV, spleen, DMG-PEG2000:DSPC:Chol:compound 1.40:11.15:38.95:48.50, N/P 30, Fluc-mRNA.
The mark [13] stands for this setting: DMG-PEG2000:DSPC:Chol:compound 1.40:11.15:38.95:48.50, N/P 30.
The mark [14] stands for this setting: DMG-PEG2000:DSPC:Chol:Lipid 1.00:4.00:60.00:35.00, N/P 18, IV, liver.
The mark [15] stands for this setting: DMG-PEG2000:DSPC:Chol:Lipid 1.00:4.00:60.00:35.00, N/P 18, IV, lung.
The mark [16] stands for this setting: DMG-PEG2000:DSPC:Chol:Lipid 1.00:4.00:60.00:35.00, N/P 18, IV, spleen.
[17] abbreviates: DMG-PEG2000:DSPC:Chol:Lipid 2.50:16.00:16.50:65.00, N/P 18, IV, liver.
Setting [18] is: DMG-PEG2000:DSPC:Chol:Lipid 2.50:16.00:16.50:65.00, N/P 18, IV, lung.
Setting [19] is: DMG-PEG2000:DSPC:Chol:Lipid 2.50:16.00:16.50:65.00, N/P 18, IV, spleen.
Setting [20] is: mRNA LNP, 1.00:4.00:30.00:65.00, N/P 30, IV, liver.
[21] abbreviates: mRNA LNP, 1.00:4.00:30.00:65.00, N/P 30, IV, lung.
[22] abbreviates: mRNA LNP, 1.00:4.00:30.00:65.00, N/P 30, IV, spleen.
The mark [23] stands for this setting: DMG-PEG2000:DSPC:Chol:Lipid 1.00:4.00:60.00:35.00, N/P 18, mRNA LNP.
The mark [24] stands for this setting: DMG-PEG2000:DSPC:Chol:Lipid 1.71:12.98:45.31:40.00, N/P 30, mRNA LNP.
Where [25] appears, read: DMG-PEG2000:DSPC:Chol:Lipid 2.50:16.00:16.50:65.00, N/P 18, mRNA LNP.
[26] abbreviates: mRNA LNP, 1.00:4.00:30.00:65.00, N/P 30.

This is an account of results in patent US12233161B1, “Lipids and lipid nanoparticle formulations” (LONGUIDE BIOPHARMA CORPORATION, priority 2024, dated 2025).

On to `CCCCCCCCCCCCN(C)C(=O)C(O)CN(CCN(C)CCN(CC(O)C(=O)N(C)CCCCCCCCCCCC)CC(O)C(=O)N(C)CCCCCCCCCCCC)CC(O)C(=O)N(C)CCCCCCCCCCCC` (stereo not shown) [Compound L0344], for which the IVIS in the data set with mice (IM, DMG-PEG2000:DPPC:Chol:compound 1.40:11.15:38.95:48.50, N/P 30, Fluc-mRNA) was found to be 8.28E+04; with mice (IV, body, DMG-PEG2000:DPPC:Chol:compound 1.40:11.15:38.95:48.50, N/P 30, Fluc-mRNA) it was 1.91E+06; in the data set on mice (IV, liver, DMG-PEG2000:DPPC:Chol:compound 1.40:11.15:38.95:48.50, N/P 30, Fluc-mRNA) it was 1.15E+05; with mice (IV, lung, DMG-PEG2000:DPPC:Chol:compound 1.40:11.15:38.95:48.50, N/P 30, Fluc-mRNA), 5.32E+06; with mice (IV, spleen, DMG-PEG2000:DPPC:Chol:compound 1.40:11.15:38.95:48.50, N/P 30, Fluc-mRNA), 2.81E+05. The “% of organ targeting” value is listed as 2.01% in the data set on mice (IV, liver, DMG-PEG2000:DPPC:Chol:compound 1.40:11.15:38.95:48.50, N/P 30); 93.07% with mice (IV, lung, DMG-PEG2000:DPPC:Chol:compound 1.40:11.15:38.95:48.50, N/P 30); 4.92% in the data set with mice (IV, spleen, DMG-PEG2000:DPPC:Chol:compound 1.40:11.15:38.95:48.50, N/P 30). This molecule also displayed a PDI in data set [1] (setting [3]) of 0.26. Moreover, the “Particle size (nm)” value in data set [1] (setting [3]) is recorded as 89.56 nm. Besides, in data set [2] (setting [3]), the “Zeta potential (mV)” value stood at 16.13 mV.
Regarding `CCCCCCCCCCNC(=O)C(O)CN(CCCCCN(CC(O)C(=O)NCCCCCCCCCC)CC(O)C(=O)NCCCCCCCCCC)CC(O)C(=O)NCCCCCCCCCC` (stereo not shown) [Compound L0320], the IVIS with mice (IM, DMG-PEG2000:DSPC:Chol:compound 1.40:11.15:38.95:48.50, N/P 20, Fluc-mRNA) came out at 1.45E+05; in the data set with mice (IV, organ not given, DMG-PEG2000:DSPC:Chol:compound 1.40:11.15:38.95:48.50, N/P 20, Fluc-mRNA), 6.60E+05. The PDI in data set [1] (setting [4]) stood at 0.10. Also, the “Particle size (nm)” value in data set [1] (setting [4]) is 120.33 nm. For the same molecule, the “Zeta potential (mV)” value in data set [2] (setting [4]) worked out at 10.39 mV.
On to `CCCCCCCCC(CCCCCC)C(=O)OCCCCCCOC(=O)C(O)CN(CCCN(C)CCCN(CC(O)C(=O)OCCCCCCOC(=O)C(CCCCCC)CCCCCCCC)CC(O)C(=O)OCCCCCCOC(=O)C(CCCCCC)CCCCCCCC)CC(O)C(=O)OCCCCCCOC(=O)C(CCCCCC)CCCCCCCC` (stereo not shown) [Compound L0295], for which the IVIS with mice (setting [5]) stood at 5.87E+07; with mice (setting [6]), 9.48E+07; in the data set with mice (setting [8]), 2.38E+07; with mice (setting [10]) it was 4.20E+06; with mice (setting [12]), 4.37E+07. The figures for the “% of organ targeting” value in the data set on mice (setting [7]), in the data set on mice (setting [9]) and in the data set on mice (setting [11]) were 33.17%, 5.87% and 60.96%, respectively. Further, the PDI in data set [1] (setting [13]) is on record as 0.10. The “Particle size (nm)” value in data set [1] (setting [13]) turned out to be 135.33 nm. The “Zeta potential (mV)” value in data set [2] (setting [13]) worked out at 10.63 mV.
With `CCCCCCOC(C)OCCCCCCOC(=O)C(O)CN(CCCN(CC(O)C(=O)OCCCCCCOC(C)OCCCCCC)CC(O)C(=O)OCCCCCCOC(C)OCCCCCC)CCCN(CC(O)C(=O)OCCCCCCOC(C)OCCCCCC)CC(O)C(=O)OCCCCCCOC(C)OCCCCCC` (stereo not shown) [Compound L0340], the IVIS with mice (setting [5]) amounted to 4.87E+07; in the data set on mice (setting [6]) it was 9.07E+07; in the data set on mice (setting [8]) it was 2.85E+07; with mice (setting [10]), 6.29E+05; in the data set on mice (setting [12]) it was 1.42E+07. The “% of organ targeting” value is reported as 65.77% in the data set on mice (setting [7]), 1.45% with mice (setting [9]) and 32.78% with mice (setting [11]). Also, the PDI in data set [1] (setting [13]) stood at 0.12. The “Particle size (nm)” value in data set [1] (setting [13]) is recorded as 125.77 nm. Moreover, in data set [2] (setting [13]), the “Zeta potential (mV)” value is on record as 4.11 mV.
Regarding `CCCCCCCCCCCCNC(=O)C(O)CN(CCN(C)CCN(CC(O)C(=O)NCCCCCCCCCCCC)CC(O)C(=O)NCCCCCCCCCCCC)CC(O)C(=O)NCCCCCCCCCCCC` (stereo not shown) [Compound L0264], the IVIS with mice (DMG-PEG2000:DSPC:Chol:Lipid 1.00:4.00:60.00:35.00, N/P 18, IV, body) is listed as 9.71 × 10^7; in the data set with mice (setting [14]), 4.70 × 10^6; with mice (setting [15]) it was 1.19 × 10^7; in the data set with mice (setting [16]), 1.81 × 10^7; with mice (DMG-PEG2000:DSPC:Chol:Lipid 1.71:12.98:45.31:40.00, N/P 30, IM, whole body scan), 3.34 × 10^5; in the data set with mice (DMG-PEG2000:DSPC:Chol:Lipid 2.50:16.00:16.50:65.00, N/P 18, IV, body) it was 4.76 × 10^7. The IVIS with mice (setting [17]) is 9.86 × 10^5; in the data set with mice (setting [18]) it was 1.05 × 10^8; in the data set with mice (setting [19]), 3.59 × 10^6; in the data set on mice (setting [20]) it was 2.69E+06; with mice (setting [21]), 6.68E+08; in the data set on mice (setting [22]), 4.76E+06. In the data set with mice (mRNA LNP, DMG-PEG2000:DSPC:Chol:lipid 1.00:4.00:30.00:65.00, N/P 30, IV, body), the IVIS is 2.87E+08. In addition, the “% of organ targeting” value with mice (setting [14]) amounted to 13.54%; in the data set with mice (setting [15]), 34.29%; in the data set with mice (setting [16]), 52.16%; in the data set on mice (setting [17]), 0.90%; in the data set on mice (setting [18]) it was 95.82%; in the data set on mice (setting [19]), 3.28%. The “% of organ targeting” value in the data set on mice (setting [20]) turned out to be 0.40%; with mice (setting [21]), 98.90%; in the data set on mice (setting [22]), 0.71%. The “in vivo delivery efficiency as compared to the benchmark compound SM102” value with mice (certain formulations, Table 2) is “superior in vivo delivery efficiency”. Further, the “tissue-targeting specificity (lung vs spleen depending on molar percentage of compound)” value in the data set on mice (certain formulations, Table 2) is given as “strong tissue-targeting specificity”. For the same molecule, the PDI in data set [1] (setting [23]) turned out to be 0.08 ± 0.02; in data set [1] (setting [24]), 0.18 ± 0.00; in data set [1] (setting [25]) it was 0.15 ± 0.01; in data set [1] (setting [26]), 0.14. In addition, the Particle size worked out at 78.48 ± 0.63 nm in data set [1] (setting [23]), 85.86 ± 1.26 nm in data set [1] (setting [24]) and 92.82 ± 0.65 nm in data set [1] (setting [25]). In addition, the “Particle size (nm)” value in data set [1] (setting [26]) came to 90.94 nm. The “Zeta potential (mV)” value in data set [2] (setting [26]) was determined as 12.33 mV.
For the molecule `CCCCCCCCCCNC(=O)C(O)CN(CCCN(CCCN(CC(O)C(=O)NCCCCCCCCCC)CC(O)C(=O)NCCCCCCCCCC)C(CO)CO)CC(O)C(=O)NCCCCCCCCCC` (stereo not shown) [Compound L0287], the IVIS with mice (setting [5]) was 1.81E+06; in the data set on mice (setting [6]), 1.89E+07; in the data set with mice (setting [8]), 3.26E+06; in the data set on mice (setting [10]), 2.45E+06; in the data set on mice (setting [12]), 3.72E+06. The “% of organ targeting” value stood at 34.55% with mice (setting [7]), 25.98% in the data set on mice (setting [9]) and 39.46% in the data set on mice (setting [11]). In addition, the PDI in data set [1] (setting [13]) was 0.18. For the same molecule, the “Particle size (nm)” value in data set [1] (setting [13]) turned out to be 137.37 nm. Moreover, the “Zeta potential (mV)” value in data set [2] (setting [13]) is listed as 14.13 mV.
